The values below are quoted from earlier work in patent publication US20090209489A1, “Compositions for the treatment of diabetis, system PH disorders, high blood pressure, and a cancer marker system” (priority 2008, published 2009).

SMILES strings stand for the structures.

This data set concerns Group 5 viruses. As to conditions: therapeutic doses.

For the compound `CC(=O)N[C@H]1[C@H]([C@H](O)[C@H](O)CO)OC(O)(C(=O)O)C[C@@H]1O` (stereo partly shown) [N-Acetyl-Neuraminic Acid], the “effectiveness at killing Group 5 viruses relative to any other known medication” value is given as “more than 1000 times”.
